Data on 8 compounds can be found in patent US20080176963A1, “TREATMENT OF BRAIN DISORDERS OF THE STRIATUM” (priority 2007, published 2008).

Where two headings read alike, the source gives them in different places. Bounds are passed on as bounds.

For assay [1], the system named is indirect-pathway MSN synapses. In kind it is cell-based, mouse.
Assay [2] has as its system 6-OHDA-treated mice. The assay is classed as in vivo, mouse. How it is done:
(§1) Dopamine depletion and behaviour. Reserpine was administered i.p. at a concentration of 1 or 5 mgkg^−1, and electrophysiological and behavioural experiments were performed 18-24 h after injections. 6-Hydroxydopamine was injected bilaterally into the median forebrain bundle at a concentration of 5 μg μl^−1 to a total volume of 2 μL per side, and experiments were performed 48-60 h after injections. Catalepsy was measured with the bar test. Descent latency represents the time in seconds required for the mouse either to remove both paws from a bar (diameter 2 mm) placed 4 cm above the ground, or for one paw to touch the ground. Horizontal locomotor activity was measured in 15-min blocks with the ENV-510 test chamber and Activity Monitor software. Animals were tested 45-60 min after drug administration. All procedures involving animals were approved by the Institutional Animal Care and Use Committee.
(§2) 6-hydroxydopamine treatment Bilateral lesions of the substantia nigra pars compacta were achieved by injecting 6-OHDA Bromide (Sigma-Aldrich) into the right and left medial forebrain bundles. Mice were anesthetized with i.p. injections of ketamine (100 mg/kg)/xylazine (10 mg/kg) and placed into a stereotactic frame. 6-OHDA was prepared immediately before injections at a concentration of 5 μg/μL in 0.02% ascorbic acid. Injections were performed using 33 gauge cannulae (Plastics One) attached to a syringe pump (Harvard Apparatus) running at 0.5 μL/min, to a total volume of 2 μL/side at the following coordinates: AP: −1.5 mm; ML±1 mm; DV: 4.8 mm. Brain slices were obtained from 6-OHDA treated animals at 48-60 hour after injections.
(§3) Behavior. 3- to 4-week-old C57/BL6 wild-type mice were injected with reserpine (1 mg/kg i.p.) or 6-OHDA as described above. […] Animals were tested 18-24 hours after reserpine injections and 48-60 hours after 6-OHDA injections. […]
(§4) To test catalepsy, a horizontal bar (2 mm diameter) was placed 4 cm above the ground. […] Descent latency was measured as the delay to when either both paws were removed from the bar or one paw touched the ground. […]

Assay [3] concerns 6-OHDA-treated mice. Conditions: mouse, in vivo. How it is done:
as §1, §2, §3, §4

Another assay relates to tyrosine hydroxylase. Description: Tyrosine hydroxylase staining of striatum after 6-OHDA. The assay is classed as in vivo, mouse. Conditions: 48 hours after bilateral 6-OHDA injection (5 μg/μL, 2 μL/side). The protocol:
as §2
Tyrosine hydroxylase staining. The degree of dopamine denervation was assessed at 48 hours post-injection in a subset of 6-OHDA-treated mice by tyrosine hydroxylase (TH) staining. Mouse forebrains were fixed at 4° C. for 1 hour in 4% paraformaldehyde (in PBS), and then kept in PBS overnight at 4° C. Brains were transferred to 30% sucrose (in PBS) for 2 hours, blocked in O.C.T. and frozen. […] coronal slices containing the striatum were collected on slides using a cryostat. […] Images were acquired on a Zeiss Axioskop 2 coupled to a Hamamatsu CCD and analyzed using Metamorph software.

Assay [4] has as its system indirect-pathway synapses. Description: DHPG-elicited depression of EPSCs (eCB-LTD), indirect pathway. The assay is classed as cell-based, mouse.
Assay [5] concerns direct-pathway synapses. Description: DHPG-elicited depression of EPSCs (eCB-LTD), direct pathway. In kind it is cell-based, mouse. Conditions: DHPG 100 μM for 10 min, MSNs held at +50 mV (so in the source).
Assay [6] concerns indirect-pathway MSN synapses. Description: LTD induced by tetanic stimulation in striatal slices from reserpine-treated mice. In kind it is cell-based, mouse.
A further assay deals with medium spiny neurons. Description: Effect of drug wash-in alone on EPSC amplitudes in striatal MSNs. Conditions: URB597 1 μM; URB754 5 μM. The assay is classed as cell-based, mouse.
Assay [7] concerns reserpine-treated mice. Description: Catalepsy bar test in reserpine-treated mice. The assay is classed as in vivo, mouse. How it is done:
as §1
(§5) Reserpine treatment. To study the effects of dopamine depletion, reserpine (Sigma-Aldrich) was dissolved in 1% glacial acetic acid at a concentration of 2.5 mg/mL. This solution was diluted with dH20 by a factor of 10, to yield a final concentration of 0.1% glacial acetic acid and 250 μg/mL reserpine This reserpine solution was injected i.p. at a concentration of 1 mg/kg or 5 mg/kg as stated in the text.
(§6) Behavior. 3- to 4-week-old C57/BL6 wild-type mice were injected with reserpine (1 mg/kg i.p.) or 6-OHDA as described above. […] Animals were tested 18-24 hours after reserpine injections and 48-60 hours after 6-OHDA injections. […] All drugs were injected i.p. in 0.9% NaCl at a volume of 20 μL/gm. The injection solution for URB597 was prepared by diluting a stock solution prepared in DMSO into saline, with a final concentration of 0.5% DMSO. Animals were then tested again at 45-60 minutes following drug injections. […]
as §4

Assay [8] relates to reserpine-treated mice. Description: Open-field locomotor activity in reserpine-treated mice. The assay is classed as in vivo, mouse. How it is done:
as §1, §5, §6, §4

The next assay deals with direct pathway neurons. Description: LTD induction at direct pathway synapses in striatal slices. The assay is classed as cell-based, mouse. Conditions: URB754 5 μM.
Assay [9] concerns indirect-pathway synapses. Description: Presynaptic inhibition of EPSCs by CB1 receptor agonist, indirect pathway. The assay is classed as cell-based, mouse. Conditions: WIN55,212 1 μM.
Assay [10] deals with direct-pathway synapses. Description: Presynaptic inhibition of EPSCs by CB1 receptor agonist, direct pathway. In kind it is cell-based, mouse. Conditions: WIN55,212 1 μM; control mice.
The subject of another assay is MSNs. Description: Block of carbachol-induced inward membrane current in MSNs. In kind it is cell-based, mouse. Conditions: pirenzepine; data not shown. The source says: FIG. 5. […] The arrow marks the time of LTD induction. […] Error bars are ±SEM.
The subject of the next assay is striatal dopamine. Conditions: 18-24 hours after reserpine injection; cited from earlier work.
Assay [11] relates to indirect-pathway MSN synapses. Description: LTD induced by high-frequency afferent stimulation, whole-cell recording in striatal slices of control mice. The assay is classed as cell-based, mouse. Conditions: indirect-pathway MSNs; AM251 1 μM; sulpiride 10 μM; methysergide 4 μM, GR125487 1 μM, LY278584 1 μM, prazosin 2 μM, propranolol 1 μM; without drug 51±5%.

For `NCCc1cc(O)c(O)cc1O` [6-OHDA, 6-hydroxydopamine], the “EPSC after LTD induction, % of baseline at 30-40 min” value (“EPSC after LTD induction, %” below) in assay [1] is reported as 111±13 % of baseline. The “Descent latency, catalepsy bar test” value in the assay on 6-OHDA-treated mice [2] (mouse, in vivo) was 45 ± 4 s. Also, in the assay on 6-OHDA-treated mice [3], the “Distance traveled in 15 min, open field” value is on record as 236±52 cm. In the assay with tyrosine hydroxylase, the “Immunoreactivity for tyrosine hydroxylase in the striatum” value is listed as 34±4 % of control.
On to `N[C@H](C(=O)O)c1cc(O)cc(O)c1` [DHPG, (S)-3,5-dihydroxyphenylglycine], for which the “EPSC, % of baseline at 20-30 min after brief DHPG application” value in assay [4] (DHPG 100 μM for 1 min, alone or in the presence of quinpirole 10 μM or URB754) was 98±5 % of baseline. Also, the “EPSC, % of baseline at 30-40 min” value in assay [4] (DHPG 100 μM for 10 min, MSNs held at +50 mV (so in the source)) is recorded as 64±5 % of baseline; in the assay on direct-pathway synapses [5], 95±9 % of baseline.
With `NC(=O)c1cccc(-c2cccc(OC(=O)NC3CCCCC3)c2)c1` [URB597], the “EPSC after LTD induction, %” value in [6] is given as 62±5 % of baseline; in assay [1] it was 55±7 % of baseline. Besides, the “Effect of drug alone on EPSC amplitudes / synaptic transmission” value in the assay on medium spiny neurons is recorded as “no effect”. Moreover, the “Descent latency, catalepsy bar test” value with reserpine-treated mice [7] (mouse, in vivo) is “no significant decrease in catalepsy”; in the assay on 6-OHDA-treated mice [2] (mouse, in vivo) it was “no significant decrease in catalepsy”. Also, the “Distance traveled in 15 min, open field” value in the assay with reserpine-treated mice [8] (mouse, in vivo) is “no significant decrease in catalepsy or increase in locomotor activity”; in the assay with 6-OHDA-treated mice [3], “no significant decrease in catalepsy or increase in locomotor activity”.
As to `Cc1ccc(Nc2nc3ccc(C)cc3c(=O)o2)cc1` [URB754], the “EPSC after LTD induction, %” value in assay [6] is 68±13 % of baseline; in [1], 69±9 % of baseline. For the same compound, the “LTD at direct pathway neurons in the presence of drug” value in the assay on direct pathway neurons was “nor did it unmask LTD”. For the same compound, the “EPSC, % of baseline at 20-30 min after brief DHPG application” value in assay [4] is 84±6 % of baseline. For the same compound, in the assay on medium spiny neurons, the “Effect of drug alone on EPSC amplitudes / synaptic transmission” value is “no effect”. In addition, the “Descent latency, catalepsy bar test” value with reserpine-treated mice [7] (reserpine-treated mice, URB754 1.5 mg/kg i.p., quinpirole 1.5 mg/kg i.p., alone or coadministered) was “no significant decrease in catalepsy”; with 6-OHDA-treated mice [2] (6-OHDA-treated mice, URB754 1.5 mg/kg i.p., quinpirole 1.5 mg/kg i.p., alone or coadministered) it was “no significant decrease in catalepsy”. The “Distance traveled in 15 min, open field” value with reserpine-treated mice [8] (mouse, in vivo) is listed as “no significant decrease in catalepsy or increase in locomotor activity”; with 6-OHDA-treated mice [3], “no significant decrease in catalepsy or increase in locomotor activity”.
As for `Cc1c(C(=O)c2cccc3ccccc23)c2cccc3c2n1[C@H](CN1CCOCC1)CO3` [WIN55,212], the entries for the “EPSC, % of baseline at 15-20 min after wash-in” value (in assay [9] (control mice); in the assay with direct-pathway synapses [10]) were 47±7 % of baseline and 56±8 % of baseline, respectively. Also, in [9] (dopamine-depleted animals (reserpine and 6-OHDA pooled)), the “EPSC, % of baseline at 15-20 min after washing” value was 58±5 % of baseline.
Regarding `CN1CCN(CC(=O)N2c3ccccc3C(=O)Nc3cccnc32)CC1` [pirenzepine], the “Block of carbachol-induced inward membrane current” value in the assay on MSNs is on record as “block a carbachol-induced inward membrane current”.
With `COC(=O)[C@H]1[C@H]2C[C@@H]3c4[nH]c5cc(OC)ccc5c4CCN3C[C@H]2C[C@@H](OC(=O)c2cc(OC)c(OC)c(OC)c2)[C@@H]1OC` [reserpine], in assay [6] (mice given reserpine 5 mg/kg i.p. 18-24 h earlier, in bath quinpirole 10 μM, URB597 1 μM or URB754 5 μM, reserpine line = no drug in bath), the “EPSC after LTD induction, %” value was 122±8 % of baseline. For the same compound, the “Descent latency, catalepsy bar test” value in the assay on reserpine-treated mice [7] (reserpine 1 mg/kg i.p. 18-24 h before, URB597 1 mg/kg i.p., quinpirole 1.5 mg/kg i.p., alone or together, 60 s maximum, reserpine line = before drug) is “more than 60 s”. In addition, the “Distance traveled in 15 min, open field” value with reserpine-treated mice [8] (reserpine 1 mg/kg i.p. 18-24 h before, URB597 1 mg/kg i.p., quinpirole 1.5 mg/kg i.p., 45-60 min after injection, reserpine line = before drug) came out at 48±11 cm. The Striatal dopamine with striatal dopamine was < 1 % of normal levels.
Take `CCN1CCCC1CNC(=O)c1cc(S(N)(=O)=O)ccc1OC` (centres unmarked) [sulpiride]: the “EPSC after LTD induction, %” value in [11] is reported as 96±12 % of baseline.
